The source of these data is article doi:10.1101/757047v1 (biorxiv, 2019).

Read-outs that look alike come from different tables or passages of the source.

Test [1] deals with T1, GAK (Homo sapiens, UniProt O14976).
T1 sequence (O14976 12-347 limits assumed): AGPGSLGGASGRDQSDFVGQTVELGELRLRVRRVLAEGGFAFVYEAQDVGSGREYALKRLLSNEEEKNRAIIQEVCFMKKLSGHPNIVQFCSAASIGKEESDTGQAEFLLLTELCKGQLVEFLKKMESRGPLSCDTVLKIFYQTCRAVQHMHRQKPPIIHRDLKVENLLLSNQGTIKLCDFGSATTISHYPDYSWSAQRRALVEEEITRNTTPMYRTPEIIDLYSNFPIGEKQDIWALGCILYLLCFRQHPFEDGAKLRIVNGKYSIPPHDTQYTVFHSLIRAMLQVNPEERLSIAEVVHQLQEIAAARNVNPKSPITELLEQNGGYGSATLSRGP
Put plainly: biochemical.

In test [2] the target is T2, SLK (Homo sapiens, UniProt Q9H2G2). Kind of test: biochemical.
Test [3] addresses T3, full length GAK protein N-terminally fused with NanoLuc luciferase (Homo sapiens, UniProt O14976).
T3 sequence (O14976 2-1311): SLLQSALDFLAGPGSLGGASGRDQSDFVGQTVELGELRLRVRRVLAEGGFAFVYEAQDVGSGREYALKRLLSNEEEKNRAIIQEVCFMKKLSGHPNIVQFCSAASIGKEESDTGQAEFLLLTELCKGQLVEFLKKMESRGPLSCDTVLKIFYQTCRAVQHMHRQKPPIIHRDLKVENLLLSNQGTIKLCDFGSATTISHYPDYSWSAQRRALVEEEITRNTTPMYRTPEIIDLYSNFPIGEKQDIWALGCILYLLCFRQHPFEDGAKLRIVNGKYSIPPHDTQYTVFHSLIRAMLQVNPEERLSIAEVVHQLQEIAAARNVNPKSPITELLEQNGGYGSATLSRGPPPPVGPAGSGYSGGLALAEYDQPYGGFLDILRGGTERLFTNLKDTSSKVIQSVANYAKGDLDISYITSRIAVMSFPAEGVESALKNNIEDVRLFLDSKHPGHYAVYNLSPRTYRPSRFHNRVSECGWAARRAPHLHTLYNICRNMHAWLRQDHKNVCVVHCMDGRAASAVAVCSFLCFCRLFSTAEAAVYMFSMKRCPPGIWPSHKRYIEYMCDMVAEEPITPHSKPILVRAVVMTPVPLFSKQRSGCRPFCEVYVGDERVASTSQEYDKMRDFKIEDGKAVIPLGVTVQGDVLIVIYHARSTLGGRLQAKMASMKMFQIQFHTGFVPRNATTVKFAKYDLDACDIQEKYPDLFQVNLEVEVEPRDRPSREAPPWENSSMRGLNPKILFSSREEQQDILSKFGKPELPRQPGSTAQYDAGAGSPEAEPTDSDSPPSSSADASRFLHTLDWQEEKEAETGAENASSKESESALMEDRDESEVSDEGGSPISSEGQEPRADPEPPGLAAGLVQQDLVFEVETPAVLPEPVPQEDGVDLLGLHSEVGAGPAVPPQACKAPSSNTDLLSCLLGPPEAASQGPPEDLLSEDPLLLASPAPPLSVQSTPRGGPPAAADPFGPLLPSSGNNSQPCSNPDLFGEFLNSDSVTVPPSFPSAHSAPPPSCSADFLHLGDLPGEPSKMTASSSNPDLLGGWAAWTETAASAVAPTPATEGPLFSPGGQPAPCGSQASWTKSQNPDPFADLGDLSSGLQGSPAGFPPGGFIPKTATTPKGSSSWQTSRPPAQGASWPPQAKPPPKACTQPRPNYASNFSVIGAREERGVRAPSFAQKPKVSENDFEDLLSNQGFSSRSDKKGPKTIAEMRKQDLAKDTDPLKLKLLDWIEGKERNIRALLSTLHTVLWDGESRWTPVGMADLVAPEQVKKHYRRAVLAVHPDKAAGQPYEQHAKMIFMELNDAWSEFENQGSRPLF
Kind of test: cell-based. Also noted: species or system HEK293T.

Test [4] addresses T4, STK10 (Homo sapiens, UniProt O94804). Kind of test: biochemical.
For test [5], the target named is T2, SLK. Put plainly: biochemical. The source holds these as a separate data set.
For test [6], the target named is T3, full length GAK protein N-terminally fused with NanoLuc luciferase. Kind of test: cell-based. Also noted: species or system HEK293T. This is another data set of the same source.
Test [7] has as its target T4, STK10. Put plainly: biochemical. This is another data set of the same source.
For test [8], the target named is T3, full length GAK protein N-terminally fused with NanoLuc luciferase. Put plainly: cell-based. The arrangement: species or system HEK293T. This is another data set of the same source.
For test [9], the target named is T2, SLK. Kind of test: biochemical. This is another data set of the same source.
For test [10], the target named is T4, STK10. Put plainly: biochemical. This is another data set of the same source.
The target of test [11] is T1, GAK. Kind of test: biochemical. This is another data set of the same source.
Test [12] has as its target T2, SLK. Put plainly: TR-FRET binding displacement assay.
Test [13] deals with T4, STK10. Kind of test: TR-FRET binding displacement assay.
In test [14] the target is T3, full length GAK protein N-terminally fused with NanoLuc luciferase. Put plainly: cell-based. The arrangement: species or system HEK293T. This is another data set of the same source.
Test [15] deals with T1, GAK. Put plainly: biochemical. This is another data set of the same source.

T2 sequence (Q9H2G2 34-292): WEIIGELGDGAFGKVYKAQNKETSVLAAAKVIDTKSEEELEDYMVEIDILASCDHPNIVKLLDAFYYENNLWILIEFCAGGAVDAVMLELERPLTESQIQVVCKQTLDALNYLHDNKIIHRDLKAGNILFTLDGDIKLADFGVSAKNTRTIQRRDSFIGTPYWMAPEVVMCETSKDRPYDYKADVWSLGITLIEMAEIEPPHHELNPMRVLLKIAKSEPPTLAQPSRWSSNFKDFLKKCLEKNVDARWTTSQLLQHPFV
T4 sequence (O94804 36-294 limits assumed): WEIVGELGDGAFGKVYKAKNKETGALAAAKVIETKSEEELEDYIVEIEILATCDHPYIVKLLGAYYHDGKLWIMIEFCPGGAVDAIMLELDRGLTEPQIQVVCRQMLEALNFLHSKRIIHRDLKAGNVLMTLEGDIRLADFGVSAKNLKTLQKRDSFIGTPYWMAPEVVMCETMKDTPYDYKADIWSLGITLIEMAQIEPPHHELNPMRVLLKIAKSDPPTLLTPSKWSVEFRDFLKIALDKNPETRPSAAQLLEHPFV

For the molecule `C#Cc1ccc(F)c(Nc2ncnc3ccc(I)cc23)c1` [compound 95, 95], the inhibition constant Ki at GAK [1] is 0.19 µM; on SLK [2], 4.5 µM; at STK10 [4] it was 4.9 µM. Besides, the IC50 in [3] is greater than 5 µM.

With `C#Cc1ccc(F)c(Nc2ncnc3cc(I)ccc23)c1` [compound 91, 91], the inhibition constant (Ki) at GAK [1] worked out at 0.11 µM; at SLK [2], 0.39 µM; on STK10 [4], 0.25 µM. The same molecule gave a half-inhibitory concentration (IC50) in [3] greater than 5 µM.

For `C#Cc1cccc(Nc2ncnc3ccc(I)cc23)c1F` [compound 96, 96], the Ki was 0.29 µM at GAK [1], 18 µM on SLK [2] and 6.7 µM at STK10 [4]. The same molecule registered an IC50 in test [3] greater than 5 µM.

Consider `Fc1ccc(Nc2ccnc3ccc(Br)cc23)cc1` [compound 108, 108], for which the Ki turned out to be 36 µM on SLK [5] and 21 µM on STK10 [7]. The same molecule displayed an IC50 in test [6] of 0.94 µM.

As for `C#Cc1cc(Nc2ncnc3cc(C#N)ccc23)ccc1F` [compound 89, 89], the Ki was determined as 0.55 µM at GAK [1], 0.69 µM at SLK [2] and 0.87 µM on STK10 [4]. This molecule also returned an IC50 in test [3] greater than 5 µM.

The molecule `COc1ccc2ncc(C#N)c(Nc3cc(OC)c(OC)c(OC)c3)c2c1` [compound 47, 47] came in with a 50% inhibitory concentration (IC50) in [8] of 0.092 µM. For the same molecule, the values for the inhibition constant Ki at SLK [9], on STK10 [10] and on GAK [11] were 3.2 µM, 1.9 µM and 0.0024 µM, respectively.

Turning to `C#Cc1cc(Nc2ncnc3ccc(I)cc23)ccc1Cl` [compound 98, 98], the inhibitory constant (Ki) on GAK [1] worked out at 0.14 µM; at SLK [2], 7.1 µM; at STK10 [4], 1 µM. This molecule gave an IC50 in test [3] greater than 5 µM.

`C#Cc1cccc(Nc2ncnc3cc(I)ccc23)c1F` [compound 92, 92]: the results for the inhibitory constant (Ki) at GAK [1], at SLK [2] and at STK10 [4] were 0.093 µM, 0.86 µM and 0.27 µM, respectively. The same molecule showed an IC50 in [3] greater than 5 µM.

`COc1cc(Nc2c(C#N)cnc3ccccc23)cc(OC)c1OC` [compound 43, 43] yielded a concentration for half-maximal inhibition (IC50) in test [8] of 0.33 µM. Moreover, the values for the Ki on SLK [9], at STK10 [10] and at GAK [11] were 7.7 µM, 4.7 µM and 0.0088 µM, respectively.

The molecule `COc1cc(Nc2c(C#N)cnc3cc(Cl)ccc23)cc(OC)c1OC` [compound 50, 50] had an IC50 in [8] of 0.47 µM. Further, the Ki at SLK [9] is 1.4 µM; on STK10 [10], 0.79 µM; at GAK [11], 0.0066 µM.

`COc1cc2ncc(C#N)c(Nc3cc(OC)c(OC)c(OC)c3)c2cc1OC` [compound 48, 48]: the IC50 in [8] (read-out: NanoBRET GAK IC50, binder) was found to be 0.006 µM. In addition, the Ki amounted to 0.57 µM on SLK [9] (read-out: SLK Ki, binder); 0.42 µM on STK10 [10] (read-out: STK10 Ki, binder); 0.00085 µM at GAK [11] (read-out: GAK Ki, binder).

In the case of `COc1ccc2c(Nc3cc(OC)c(OC)c(OC)c3)c(C#N)cnc2c1` [compound 53, 53], half-maximal inhibition in [8] (IC50) was put at 0.078 µM. Moreover, the figures for the Ki at SLK [9], at STK10 [10] and on GAK [11] were 2.1 µM, 1.2 µM and 0.002 µM, respectively.

For the molecule `C#Cc1cc(Nc2ncnc3cc(I)ccc23)ccc1Cl` [compound 94, 94], the Ki is 0.092 µM at GAK [1], 0.93 µM on SLK [2] and 0.24 µM on STK10 [4]. This molecule had an IC50 in test [3] greater than 5 µM.

For `C#Cc1ccc(F)c(Nc2ncnc3cc(OC)c(OC)cc23)c1` [compound 99, 99], the inhibitory constant (Ki) on GAK [1] was determined as 0.0058 µM; on SLK [2], 0.28 µM; at STK10 [4], 0.22 µM. Further, the IC50 in test [3] came out at 0.39 µM.

In test [8], `COc1cc(Nc2c(C#N)cnc3ccc(I)cc23)cc(OC)c1OC` [compound 46, 46] had an IC50 of 0.26 µM. Moreover, the results for the Ki at SLK [9], on STK10 [10] and at GAK [11] were 9.7 µM, 4.2 µM and 0.0048 µM, respectively.

Regarding `C#Cc1cc(Nc2ncnc3cc(C#N)ccc23)ccc1Cl` [compound 90, 90], the values for the inhibition constant Ki at GAK [1], at SLK [2] and on STK10 [4] were 0.32 µM, 6.3 µM and 1.6 µM, respectively. The same molecule displayed a half-inhibitory concentration (IC50) in [3] greater than 5 µM.

On to `C#Cc1cccc(Nc2c(C#N)cnc3cc(I)ccc23)c1` [compound 86, 4-((3-ethynylphenyl)amino)-7-iodoquinoline-3-carbonitrile], for which the values for the Ki on SLK [12], at STK10 [13] and at GAK [15] were 0.075 µM, 0.08 µM and 0.019 µM, respectively. For the same molecule, the IC50 in [14] was greater than 5 µM.

In [8], `COc1cc(Nc2c(C#N)cnc3cc(I)ccc23)cc(OC)c1OC` [compound 52, 52] had an IC50 of 0.2 µM. Further, the Ki at SLK [9] came to 0.49 µM; at STK10 [10], 0.2 µM; at GAK [11], 0.0052 µM.

`COc1cc(Nc2c(C#N)cnc3ccc(Br)cc23)cc(OC)c1OC` [compound 45, 45] came in with an IC50 in [8] of 0.2 µM. Also, the inhibitory constant (Ki) worked out at 9.4 µM at SLK [9] and 0.0023 µM at GAK [11].

For `C#Cc1cc(Nc2ncnc3ccc(I)cc23)ccc1F` [compound 97, 97], the results for the Ki at GAK [1], at SLK [2] and on STK10 [4] were 0.068 µM, 1.6 µM and 0.87 µM, respectively. The IC50 in test [3] is greater than 5 µM.

For the molecule `C#Cc1cc(Nc2ncnc3cc(OC)c(OC)cc23)ccc1Cl` [compound 102, 102], the Ki at GAK [1] was determined as 0.0034 µM; at SLK [2], 0.33 µM; at STK10 [4], 0.075 µM. In addition, half-maximal inhibition in test [3] (IC50) required 0.39 µM.

For `COc1cc(Nc2c(C#N)cnc3ccc(Cl)cc23)cc(OC)c1OC` [compound 44, 44], the half-maximal inhibitory concentration (IC50) in test [8] was 0.24 µM. Moreover, the inhibitory constant (Ki) at SLK [9] was found to be 53 µM; at STK10 [10], 26 µM; on GAK [11], 0.0038 µM.

As to `COc1cc(Nc2c(C#N)cnc3cc(Br)ccc23)cc(OC)c1OC` [compound 51, 51], the IC50 in test [8] is 0.14 µM. For the same molecule, the inhibition constant Ki at SLK [9] amounted to 0.71 µM; on STK10 [10], 0.44 µM; on GAK [11], 0.0029 µM.

Take `C#Cc1cccc(Nc2ncnc3cc(C#N)ccc23)c1F` [compound 88, 88]: the inhibitory constant (Ki) worked out at 0.33 µM at GAK [1], 1.1 µM on SLK [2] and 0.5 µM on STK10 [4]. For the same molecule, in [3], the IC50 was greater than 5 µM.

For the molecule `COc1cc(Nc2c(C#N)cnc3ccc(S(C)(=O)=O)cc23)cc(OC)c1OC` [compound 49, 49], in [8], the IC50 was greater than 5 µM. Besides, the Ki on SLK [9] was found to be 1.2 µM; on STK10 [10], 1.5 µM; at GAK [11], 0.21 µM.
